Each block holds one compound with its values, some of them ahead of it.
Tests used:
Assay in all cases: competitive isoTOP-ABPP
Format in all cases: binding
[1] = target: T1, NAA25 N-alpha-acetyltransferase 25, NatB auxiliary subunit (Homo sapiens, UniProt Q14CX7); conditions: 50 uM, 231 sol, in vitro
T1 construct: isoTOP-ABPP experiments performed in cell lysates (in vitro); endogenous in cells; host or cells: soluble proteome of human cancer cell lines (MDA-MB-231; Ramos and Jurkat also prepared)
T1 sequence (Q14CX7 whole entry): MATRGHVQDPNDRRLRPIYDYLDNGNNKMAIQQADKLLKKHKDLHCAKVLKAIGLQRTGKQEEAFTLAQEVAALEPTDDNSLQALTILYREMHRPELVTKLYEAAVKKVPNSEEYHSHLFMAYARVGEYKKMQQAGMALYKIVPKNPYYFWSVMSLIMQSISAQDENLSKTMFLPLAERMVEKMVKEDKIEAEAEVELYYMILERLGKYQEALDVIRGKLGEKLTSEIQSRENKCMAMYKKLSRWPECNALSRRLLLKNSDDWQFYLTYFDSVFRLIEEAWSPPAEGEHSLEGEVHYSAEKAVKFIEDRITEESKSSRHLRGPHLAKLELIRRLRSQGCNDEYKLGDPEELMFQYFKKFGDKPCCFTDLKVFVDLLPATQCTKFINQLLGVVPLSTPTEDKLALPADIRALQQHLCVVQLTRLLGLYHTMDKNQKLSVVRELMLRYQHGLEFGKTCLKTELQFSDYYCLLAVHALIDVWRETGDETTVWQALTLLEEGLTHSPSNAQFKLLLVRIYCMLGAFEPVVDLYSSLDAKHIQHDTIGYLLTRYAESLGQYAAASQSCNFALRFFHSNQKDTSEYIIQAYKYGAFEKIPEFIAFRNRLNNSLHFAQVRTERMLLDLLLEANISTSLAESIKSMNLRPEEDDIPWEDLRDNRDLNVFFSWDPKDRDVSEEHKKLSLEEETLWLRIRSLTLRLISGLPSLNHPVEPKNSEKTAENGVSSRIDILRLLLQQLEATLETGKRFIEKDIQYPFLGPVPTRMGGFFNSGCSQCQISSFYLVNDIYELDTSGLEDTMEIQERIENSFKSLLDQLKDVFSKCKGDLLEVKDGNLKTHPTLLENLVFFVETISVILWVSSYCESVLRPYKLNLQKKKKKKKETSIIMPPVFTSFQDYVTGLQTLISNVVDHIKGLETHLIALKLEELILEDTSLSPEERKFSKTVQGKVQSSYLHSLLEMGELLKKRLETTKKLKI
Procedure, shortened: (§1)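 Readout: isotopic light/heavy MS1 peak-area ratio (R, DMSO heavy over compound light), median across peptides sharing a modified lysine. Lysate received fragment (activated esters 50 μM, guanidinylating agents 100 μM final) or DMSO, then 0.1 mM STP-alkyne probe for 1 h at ambient temperature.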

[2] = target: T2, MAP2K3 Dual specificity mitogen-activated protein kinase (Homo sapiens, UniProt P46734); conditions: for isoTOP-ABPP reactivity ratio at lysine P46734_K93 / isoTOP-ABPP ratio (R) at liganded lysine P46734_K93: 50 uM, in vitro; for isoTOP-ABPP reactivity ratio at lysine P46734_K93: 231 sol; for isoTOP-ABPP ratio (R) at liganded lysine P46734_K93: sol, 231
T2 construct: isoTOP-ABPP experiments performed in cell lysates (in vitro); endogenous in cells; host or cells: soluble proteome of human cancer cell lines (MDA-MB-231; Ramos and Jurkat also prepared)
T2 sequence (P46734 1-347): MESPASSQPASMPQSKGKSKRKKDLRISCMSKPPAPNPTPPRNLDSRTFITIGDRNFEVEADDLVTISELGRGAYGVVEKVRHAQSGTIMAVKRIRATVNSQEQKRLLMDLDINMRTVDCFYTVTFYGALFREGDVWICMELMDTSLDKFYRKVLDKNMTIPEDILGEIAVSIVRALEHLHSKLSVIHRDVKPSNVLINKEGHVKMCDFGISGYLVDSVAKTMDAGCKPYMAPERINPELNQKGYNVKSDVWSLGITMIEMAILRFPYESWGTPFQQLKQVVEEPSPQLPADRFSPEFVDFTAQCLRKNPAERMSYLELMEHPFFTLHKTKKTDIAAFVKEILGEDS
Procedure, shortened: as §1

[3] = target: T3, PFKM 6-phosphofructokinase, muscle type (Homo sapiens, UniProt P08237); conditions: for isoTOP-ABPP reactivity ratio at lysine P08237_K678 / isoTOP-ABPP ratio (R) at liganded lysine P08237_K678: 50 uM, in vitro; for isoTOP-ABPP reactivity ratio at lysine P08237_K678: 231 sol; for isoTOP-ABPP ratio (R) at liganded lysine P08237_K678: sol, 231
T3 construct: isoTOP-ABPP experiments performed in cell lysates (in vitro); endogenous in cells; host or cells: MDA-MB-231 soluble lysate
T3 sequence (P08237 1-780): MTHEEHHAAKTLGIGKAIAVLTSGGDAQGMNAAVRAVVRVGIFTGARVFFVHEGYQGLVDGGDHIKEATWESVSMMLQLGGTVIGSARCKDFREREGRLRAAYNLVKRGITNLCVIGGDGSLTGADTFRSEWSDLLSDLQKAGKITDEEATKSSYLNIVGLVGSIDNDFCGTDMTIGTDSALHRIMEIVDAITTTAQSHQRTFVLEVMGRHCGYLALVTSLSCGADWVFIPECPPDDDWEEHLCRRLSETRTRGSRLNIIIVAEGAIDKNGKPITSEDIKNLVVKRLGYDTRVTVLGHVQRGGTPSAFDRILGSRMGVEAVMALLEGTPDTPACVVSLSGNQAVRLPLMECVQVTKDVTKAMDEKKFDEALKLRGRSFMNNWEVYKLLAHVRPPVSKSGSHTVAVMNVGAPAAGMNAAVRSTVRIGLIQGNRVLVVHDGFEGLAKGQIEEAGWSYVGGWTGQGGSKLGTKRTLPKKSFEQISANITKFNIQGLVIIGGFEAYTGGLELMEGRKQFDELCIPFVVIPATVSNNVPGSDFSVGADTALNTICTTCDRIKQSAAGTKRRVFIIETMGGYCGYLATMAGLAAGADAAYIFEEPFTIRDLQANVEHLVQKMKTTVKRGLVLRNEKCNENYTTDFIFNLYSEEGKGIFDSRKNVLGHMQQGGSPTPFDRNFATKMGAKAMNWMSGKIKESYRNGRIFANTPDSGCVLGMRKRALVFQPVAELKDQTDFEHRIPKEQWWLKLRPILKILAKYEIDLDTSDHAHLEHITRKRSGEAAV
Procedure, shortened: as §1

[4] = target: T4, G6PD Glucose-6-phosphate 1-dehydrogenase (Homo sapiens, UniProt P11413); conditions: for isoTOP-ABPP reactivity ratio at lysine P11413_K171 / isoTOP-ABPP ratio (R) at liganded lysine P11413_K171: 50 uM, in vitro; for isoTOP-ABPP reactivity ratio at lysine P11413_K171: 231 sol; for isoTOP-ABPP ratio (R) at liganded lysine P11413_K171: sol, 231
T4 construct: isoTOP-ABPP experiments performed in cell lysates (in vitro); endogenous in cells; host or cells: MDA-MB-231 soluble lysate
T4 sequence (P11413 whole entry): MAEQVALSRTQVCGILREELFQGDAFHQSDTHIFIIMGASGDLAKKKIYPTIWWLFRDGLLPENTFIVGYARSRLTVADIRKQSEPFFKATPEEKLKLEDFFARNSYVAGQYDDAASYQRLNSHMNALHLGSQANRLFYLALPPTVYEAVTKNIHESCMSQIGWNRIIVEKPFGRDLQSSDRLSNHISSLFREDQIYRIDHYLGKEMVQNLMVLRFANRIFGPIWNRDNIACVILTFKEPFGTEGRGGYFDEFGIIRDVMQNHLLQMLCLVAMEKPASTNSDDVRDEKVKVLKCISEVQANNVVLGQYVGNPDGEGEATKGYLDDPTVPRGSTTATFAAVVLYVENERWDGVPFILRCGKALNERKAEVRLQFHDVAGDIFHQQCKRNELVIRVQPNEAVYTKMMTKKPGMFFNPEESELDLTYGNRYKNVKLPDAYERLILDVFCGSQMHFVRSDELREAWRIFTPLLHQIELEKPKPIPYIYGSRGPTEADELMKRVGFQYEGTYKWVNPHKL
Procedure, shortened: as §1

SMILES: O=C(Oc1ccc([N+](=O)[O-])cc1[N+](=O)[O-])C(c1ccccc1)c1ccccc1 [fragment 30, 2,4-Dinitrophenyl 2,2-diphenylacetate]
isoTOP-ABPP reactivity ratio at lysine Q14CX7_K575 [1]: 4.7
isoTOP-ABPP reactivity ratio at lysine P46734_K93 [2]: 1.4
isoTOP-ABPP reactivity ratio at lysine P08237_K678 [3]: 20.0
isoTOP-ABPP reactivity ratio at lysine P11413_K171 [4]: 3.9

SMILES: O=C(Oc1ccc([N+](=O)[O-])cc1[N+](=O)[O-])c1cc(C(F)(F)F)cc(C(F)(F)F)c1 [fragment 31, 2,4-Dinitrophenyl 3,5-bis(trifluoromethyl)benzoate]
isoTOP-ABPP reactivity ratio at lysine Q14CX7_K575 [1]: 1.2
isoTOP-ABPP reactivity ratio at lysine P46734_K93 [2]: 1.2
isoTOP-ABPP reactivity ratio at lysine P08237_K678 [3]: 1.1
isoTOP-ABPP reactivity ratio at lysine P11413_K171 [4]: 1.1

SMILES: Cn1cc(CC(=O)Oc2ccc([N+](=O)[O-])cc2[N+](=O)[O-])c2ccccc21 [fragment 32, 2,4-Dinitrophenyl 2-(1-methyl-1H-indol-3-yl)acetate]
isoTOP-ABPP reactivity ratio at lysine Q14CX7_K575 [1]: 2.4
isoTOP-ABPP reactivity ratio at lysine P46734_K93 [2]: 1.4
isoTOP-ABPP reactivity ratio at lysine P08237_K678 [3]: 15.4
isoTOP-ABPP reactivity ratio at lysine P11413_K171 [4]: 0.9

SMILES: O=C(Oc1ccc([N+](=O)[O-])cc1[N+](=O)[O-])C1CCN(C(=O)OCc2ccccc2)CC1 [fragment 34, 1-Benzyl 4-(2,4-dinitrophenyl) piperidine-1,4-dicarboxylate]
isoTOP-ABPP ratio (R) at liganded lysine P46734_K93 [2]: 0.8
isoTOP-ABPP ratio (R) at liganded lysine P08237_K678 [3]: 1.1
isoTOP-ABPP ratio (R) at liganded lysine P11413_K171 [4]: 0.9

SMILES: O=C(CC12CC3CC(CC(C3)C1)C2)Oc1ccc([N+](=O)[O-])cc1[N+](=O)[O-] [fragment 38, 2,4-Dinitrophenyl 2-(adamantan-1-yl)acetate]
isoTOP-ABPP ratio (R) at liganded lysine P46734_K93 [2]: 0.9
isoTOP-ABPP ratio (R) at liganded lysine P08237_K678 [3]: 1.0
isoTOP-ABPP ratio (R) at liganded lysine P11413_K171 [4]: 0.9

SMILES: CC(C)(C)OC(=O)NCCCC(=O)Oc1ccc([N+](=O)[O-])cc1[N+](=O)[O-] [fragment 41, 2,4-Dinitrophenyl 4-((tert-butoxycarbonyl)amino)butanoate]
isoTOP-ABPP ratio (R) at liganded lysine P46734_K93 [2]: 0.9
isoTOP-ABPP ratio (R) at liganded lysine P08237_K678 [3]: 2.0
isoTOP-ABPP ratio (R) at liganded lysine P11413_K171 [4]: 1.0

SMILES: O=C(Oc1ccc([N+](=O)[O-])cc1[N+](=O)[O-])C(c1ccccc1)(c1ccccc1)c1ccccc1 [fragment 42, 2,4-Dinitrophenyl 2,2,2-triphenylacetate]
isoTOP-ABPP ratio (R) at liganded lysine P46734_K93 [2]: 0.9
isoTOP-ABPP ratio (R) at liganded lysine P08237_K678 [3]: 0.9
isoTOP-ABPP ratio (R) at liganded lysine P11413_K171 [4]: 0.9

SMILES: CC(=O)Oc1ccc([N+](=O)[O-])cc1[N+](=O)[O-] [fragment 43, 2,4-Dinitrophenyl acetate]
isoTOP-ABPP ratio (R) at liganded lysine P46734_K93 [2]: 1.0
isoTOP-ABPP ratio (R) at liganded lysine P08237_K678 [3]: 1.3
isoTOP-ABPP ratio (R) at liganded lysine P11413_K171 [4]: 1.0

SMILES: O=C(ON1C(=O)CCC1=O)c1cc(C(F)(F)F)cc(C(F)(F)F)c1 [fragment 46, 3,5-Bis(trifluoromethyl)benzoic acid NHS ester]
isoTOP-ABPP ratio, lysine P46734_K93 ([2]; 50 uM_231_sol_in vitro): 1.3
isoTOP-ABPP ratio, lysine P08237_K678 ([3]; 50 uM_231_sol_in vitro): 1.3
isoTOP-ABPP ratio, lysine P11413_K171 ([4]; 50 uM_231_sol_in vitro): 0.9

isoTOP-ABPP ratio, lysine P46734_K93 ([2]; 50 uM_231_sol_in vitro): 1.1
isoTOP-ABPP ratio, lysine P08237_K678 ([3]; 50 uM_231_sol_in vitro): 0.8
isoTOP-ABPP ratio, lysine P11413_K171 ([4]; 50 uM_231_sol_in vitro): 1.0
SMILES: O=C(Oc1c(F)c(F)c(C(F)(F)F)c(F)c1F)c1cc(C(F)(F)F)cc(C(F)(F)F)c1 [fragment 47, 2,3,5,6-Tetrafluoro-4-(trifluoromethyl)phenyl 3,5-bis(trifluoromethyl)benzoate]

isoTOP-ABPP ratio, lysine P46734_K93 ([2]; 100 uM_231_sol_in vitro): 1.8
isoTOP-ABPP ratio, lysine P08237_K678 ([3]; 100 uM_231_sol_in vitro): 20.0
isoTOP-ABPP ratio, lysine P11413_K171 ([4]; 100 uM_231_sol_in vitro): 1.1
SMILES: CC(C)(C)OC(=O)N=C(NC(=O)OC(C)(C)C)n1cccn1 [fragment 50, reference compound]
